Reference: US20170360781A1, “PHARMACEUTICAL COMPOSITION COMPRISING BICYCLIC NITROGEN-CONTAINING AROMATIC HETEROCYCLIC AMIDE COMPOUND AS ACTIVE INGREDIENT” (Astellas Pharma Inc., priority 2014, published 2017)

Tests used:
[1] = tested on: PIK3CA mutation-positive and BRAF mutation-positive RKO cells derived from human colorectal cancer; experiment: Anti-tumor test 1 on mice tumor-bearing human colorectal cancer-derived RKO cells; format: in vivo; details: Balb/c nude mice, 8 mg/kg oral once a day for 10 days, final measuring day
Description: (§1) 5 to 6 week old male Balb/c nude mice (CHARLES RIVER LABORATORIES JAPAN, INC.) were injected and implanted, under the skin on the back, with 1.5×10^6 PIK3CA mutation-positive and BRAF mutation-positive RKO cells, or 3×10^6 PIK3CA mutation-positive Colo201 cells, both derived from human colorectal cancer suspended to a PBS solution or a mixed solution of PBS and Matrigel (registered trademark) in 1:1. Dividing into groups was performed when the tumor volume reached 100 to 300 mm^3, and administering of the test compounds was started. The test was performed on each of the 5 mice in a solvent group and a compound administered group. By oral administration, 6% cyclodextrin aqueous solution for the solvent group, and 6% cyclodextrin aqueous solution in which the test compound was mixed by 8 mg/kg for the compound administered group were administered. The administration was performed once a day for 10 days (RKO) or 14 days (Colo201), and the body weight and the tumor diameter were measured twice a week. For calculation of the tumor volume, the formula below was used.
(§2) [Tumor volume(mm^3)]=[major axis of tumor(mm)]×[minor axis of tumor(mm)]^2×0.5
(§3) The inhibition rate of tumor growth was calculated from the average value of the tumor volume according to the formula below. […]

[2] = tested on: DB cells derived from DLBCL; experiment: Anti-tumor test 2 on mice tumor-bearing DLBCL-derived DB cells; format: in vivo; details: Balb/c nude mice, final measuring day
Description: (§4) 4 to 5 week old male Balb/c nude mice (CHARLES RIVER LABORATORIES JAPAN, INC.) were injected and implanted, under the skin on the back, with 3×10^6 DB cells or SU-DHL-4 cells both derived from DLBCL suspended to a mixed solution of PBS and Matrigel (registered trademark) in 1:1. Dividing into groups was performed when tumor volume reached 100 to 250 mm^3, and administering of the test compounds was started. The test was performed on each of the 5 mice in the solvent group and the compound administered group. By oral administration, 6% cyclodextrin aqueous solution for the solvent group, and 6% cyclodextrin aqueous solution in which the test compound was mixed by the dosage shown in Table 10 for the compound administered group were administered. The administration was performed once a day for 21 days by oral administration, and the body weight and the tumor diameter were measured twice a week. For calculation of the tumor volume, the formula below was used.
(§5) [Tumor volume(mm^3)]=[major axis of tumor(mm)]×[minor axis of tumor (mm)]^2×0.5
(§6) The inhibition rate of tumor growth and the rate of tumor regression were calculated from the average value of the tumor volume according to the formula below.
(§7) Inhibition rate of tumor growth(%)=(1−average of tumor volume growth in each group/average of tumor volume growth in solvent group)×100
(§8) Rate of tumor regression(%)=(1−average tumor volume in each group on measuring day/average tumor volume in each group when dividing groups)×100

[3] = tested on: Human AML-derived MV-4-11 cells; experiment: Anti-tumor test 2 on tumor-bearing mice transplanted with human AML-derived MV-4-11 cell; format: in vivo; details: MV-4-11, NOD/SCID mice, 14 days after starting the administration
Description: 4 to 5 week old male NOD/SCID nude mice (CHARLES RIVER LABORATORIES JAPAN, INC.) were injected and implanted, under the skin on the back, with 5×10^6 MV-4-11 cells suspended to a mixed solution of PBS and Matrigel (registered trademark) in 1:1. Administering of the test compounds was started when tumor volume reached 100 to 250 mm^3. The test was performed on each of the 5 mice in the solvent group and the compound administered group. By oral administration, 6% cyclodextrin aqueous solution for the solvent group, and 6% cyclodextrin aqueous solution in which the test compound was mixed by the dosage shown in Table 8 for the compound administered group were administered. The administration was performed once a day by oral administration, and the body weight and the tumor diameter were measured twice a week. For calculation of the tumor volume, the formula below was used.
as §2, §6, §7, §8
The anti-tumor effect of Test Compounds A1, B1, C1, and D1 on the final measuring day (14 days after starting the administration) is shown in Table 8.

[4] = tested on: SU-DHL-4 cells derived from DLBCL; experiment: Anti-tumor test 2 on mice tumor-bearing DLBCL-derived SU-DHL-4 cells; format: in vivo; details: SU-DHL-4, Balb/c nude mice, final measuring day
Description: as §4, §5, §6, §7, §8

[5] = tested on: Human AML-derived KG-1 cells; experiment: Anti-tumor test 1 on tumor-bearing mice transplanted with human AML-derived KG-1 cell; format: in vivo; details: KG-1, Balb/c nude mice, final measuring day
Description: 4 week old male Balb/c nude mice (CHARLES RIVER LABORATORIES JAPAN, INC.) were injected and implanted, under the skin on the back, with 3×10^6 KG-1 cells, suspended to a mixed solution of PBS and Matrigel (registered trademark) in 1:1. After 16 days of implantation, administering of the test compounds was started. The test was performed on each of the 5 mice in the solvent group (6% cyclodextrin aqueous solution) and the test compound administered group (Test Compound Al was mixed to the solvent group by a dosage of 2, 4, or 8 mg/kg). The administration was performed once a day for 14 days by oral administration, and the body weight and the tumor diameter were measured twice a week. For calculation of the tumor volume, the formula below was used.
as §2, §6, §7, §8

[6] = tested on: PIK3CA mutation-positive and BRAF mutation-positive RKO cells derived from human colorectal cancer; experiment: Anti-tumor test 2 on mice tumor-bearing human colorectal cancer-derived RKO cells; format: in vivo; details: Balb/c nude mice, final measuring day
Description: (§9) 4 to 5 week old male Balb/c nude mice (CHARLES RIVER LABORATORIES JAPAN, INC.) were injected and implanted, under the skin on the back, with 3×10^6 PIK3CA mutation-positive and BRAF mutation-positive RKO cells, or 3×10^6 PIK3CA mutation-positive Colo201 cells, both derived from human colorectal cancer suspended to a mixed solution of PBS and Matrigel (registered trademark) in 1:1. Dividing into groups was performed when the tumor volume reached 100 to 250 mm^3, and administering of the test compounds was started. The test was performed on each of the 5 mice in the solvent group and the compound administered group. By oral administration, 6% cyclodextrin aqueous solution for the solvent group, and 6% cyclodextrin aqueous solution in which the test compound was mixed by the dosage shown in Table 4 for the compound administered group were administered. The administration was performed once a day for 11 days (RKO) or 21 days (Colo201), and the body weight and the tumor diameter were measured twice a week. For calculation of the tumor volume, the formula below was used.
as §2
(§10) The inhibition rate of tumor growth was calculated from the average value of the tumor volume according to the formula below.
(§11) Inhibition rate of tumor growth(%)=([…]average of tumor volume growth in each group/average of tumor volume growth in solvent group)×100

[7] = tested on: PIK3CA mutation-positive Colo201 cells derived from human colorectal cancer; experiment: Anti-tumor test 2 on mice tumor-bearing human colorectal cancer-derived Colo201 cells; format: in vivo; details: Colo201, Balb/c nude mice, final measuring day
Description: as §9, §2, §10, §11

[8] = tested on: PIK3CA mutation-positive Colo201 cells derived from human colorectal cancer; experiment: Anti-tumor test 1 on mice tumor-bearing human colorectal cancer-derived Colo201 cells; format: in vivo; details: Colo201, Balb/c nude mice, 8 mg/kg oral once a day for 14 days, final measuring day
Description: as §1, §2, §3

[9] = tested on: Human AML-derived MV-4-11 cells; experiment: Anti-tumor test 1 on tumor-bearing mice transplanted with human AML-derived MV-4-11 cell; format: in vivo; details: MV-4-11, NOD/SCID mice, 8 mg/kg oral once a day for 19 days, final measuring day
Description: 4 to 5 week old male NOD/SCID nude mice (CHARLES RIVER LABORATORIES JAPAN, INC.) were injected and implanted, under the skin on the back, with 5×10^6 MV-4-11 cells suspended to a mixed solution of PBS and Matrigel (registered trademark) in 1:1. After 7 days of implantation, administering of the test compounds was started. […] The administration was performed once a day for 19 days by oral administration, and the body weight and the tumor diameter were measured twice a week. For calculation of the tumor volume, the formula below was used.
as §2, §10, §7

[10] = tested on: DB cells derived from DLBCL; experiment: Anti-tumor test 1 on mice tumor-bearing DLBCL-derived DB cells; format: in vivo; details: Balb/c nude mice, 8 mg/kg oral once a day for 16 days, final measuring day
Description: (§12) 4 to 5 week old male Balb/c nude mice (CHARLES RIVER LABORATORIES JAPAN, INC.) were injected and implanted, under the skin on the back, with 3×10^6 DB cells or WSU-DLCL-2 cells both derived from DLBCL suspended to a mixed solution of PBS and Matrigel (registered trademark) in 1:1. Dividing into groups was performed when the average tumor volume reached 400 to 500 mm^3, and administering of the test compounds was started. […] The administration was performed once a day for 16 days (DB) or 17 days (WSU-DLCL-2) by oral administration, and the body weight and the tumor diameter were measured twice a week. For calculation of the tumor volume, the formula below was used.
as §5
(§13) The rate of tumor regression was calculated from the average value of the tumor volume according to the formula below.
as §8

[11] = tested on: WSU-DLCL-2 cells derived from DLBCL; experiment: Anti-tumor test 1 on mice tumor-bearing DLBCL-derived WSU-DLCL-2 cells; format: in vivo; details: WSU-DLCL-2, Balb/c nude mice, 8 mg/kg oral once a day for 17 days, final measuring day
Description: as §12, §5, §13, §8

[12] = tested on: Human AML-derived KG-1 cells; experiment: Anti-tumor test 2 on tumor-bearing mice transplanted with human AML-derived KG-1 cell; format: in vivo; details: KG-1, Balb/c nude mice, final measuring day
Description: as §4, with “5 weeks” for “5 week”, “3×10^6 KG-1” for “3×10^6 DB”, “cells” for “cells or SU-DHL-4 cells both derived from DLBCL”, “to 200” for “to 250”, “Table 6” for “Table 10”, “21 days,” for “21 days by oral administration,”
as §2, §6, §7, §8

[13] = biological target: Human Mitochondrial Complex I (Homo sapiens, UniProt O75251+O75306+P03886); experiment: Evaluation on effect of inhibiting human mitochondrial Complex I (mitochondria from MDA-MB-453 tumor); format: biochemical; details: mitochondria extracted from MDA-MB-453 tumor; concentration in terms of freebase
Description: A solution of 9 times the tumor weight for extraction of mitochondria (0.275 M Sucrose, 2.2 mM EDTA, 11 mM Tris/HCl, pH 7.5, Complete-EDTA-free (Roche Diagnostics)) was added thereto, and then the tumor was crushed. The centrifugation was performed at 600×g for 10 minutes at 4° C., the supernatant was obtained, and then the centrifugation was performed at 14,000×g for 10 minutes at 4° C., and therefore pellets were obtained. The pellets were suspended in 10 mM Tris/HCl pH 7.5 of 5 times the weight of the extracted tumor, and therefore a suspension of human mitochondria was obtained.
Next, 25 or 50 μl of the suspension of human mitochondria was added per 1 ml of a liquid for measuring Complex I activity (25 mM potassium phosphate, pH 7.6, 0.35% Bovine Serum Albumin (BSA), 60 μM 2,6-dichlorophenol-indophenol, 70 μM decylubiquinone, 1 μM antimycin). After the solution was collected and added to a 96 or 384 well plate, a test compound was added to an arbitrary range from the final concentration of 10,000 nM to the final concentration of 0.3 nM. […] Furthermore, NADH was added to each well to the final concentration of 0.2 or 0.5 mM, and the change in absorbance at a wavelength of 600 nm was measured by using the SpectraMax (Molecular Devices, LLC.) set to 37° C. in advance. […]

[14] = 8 mg/kg oral once a day for 21 days
[15] = 8 mg/kg oral once a day for 11 days
[16] = 1 mg/kg oral once a day for 21 days
[17] = 1 mg/kg oral once a day for 11 days

COc1ccc(CN2CCC(c3ccc4[nH]c(C(=O)N5CCN(Cc6ccc(C(F)(F)F)cc6)CC5)nc4c3)CC2)cn1 [Compound A1, (5-{1-[(6-methoxypyridin-3-yl)methyl]piperidin-4-yl}-1H-benzimidazol-2-yl){4-[4-(trifluoromethyl)benzyl]piperazin-1-yl}methanone]
Inhibition rate of tumor growth [1]: 67%
Regression rate DB [2, 14]: 66% regression
Rate of tumor regression ([3]; 8 mg/kg oral once a day): 70% regression
Inhibition rate SU-DHL-4 [4, 14]: 64%
Inhibition rate of tumor growth ([5]; 2 mg/kg oral once a day for 14 days): 54% inhibition
Inhibition rate of tumor growth ([5]; 4 mg/kg oral once a day for 14 days): 70% inhibition
Rate of tumor regression ([5]; 8 mg/kg oral once a day for 14 days): 8% regression
Inhibition rate RKO [6, 15]: 48%
Inhibition rate Colo201 [7, 14]: 53%
Inhibition rate of tumor growth [8]: 60%
Inhibition rate of tumor growth [9]: 96%
Regression rate [10]: 67%
Regression rate [11]: 72%
Inhibition rate of tumor growth [12, 14]: 99% inhibition

COc1cnc(CN2CCC(c3ccc4[nH]c(C(=O)N5CCN(Cc6ccc(C(F)(F)F)cc6)CC5)nc4c3)CC2)cn1 [Compound B1, (5-{1-[(5-methoxypyrazin-2-yl)methyl]piperidin-4-yl}-1H-benzimidazol-2-yl){4-[4-(trifluoromethyl)benzyl]piperazin-1-yl}methanone]
Regression rate DB [2, 14]: 92% regression
Rate of tumor regression ([3]; 8 mg/kg oral once a day): 76% regression
Inhibition rate SU-DHL-4 [4, 14]: 87%
Inhibition rate RKO [6, 15]: 55%
Inhibition rate Colo201 [7, 14]: 52%
Rate of tumor regression [12, 14]: 31% regression

CCOc1cnc(CN2CCC(c3ccc4cc(C(=O)N5CCN(Cc6ccc(C#N)cc6)CC5)n(C)c4c3)CC2)cn1 [Compound C1, 4-({4-[(6-{1-[(5-ethoxypyrazin-2-yl)methyl]piperidin-4-yl}-1-methyl-1H-indol-2-yl)carbonyl]piperazin-1-yl}methyl)benzonitrile]
Regression rate DB [2, 16]: 69% regression
Rate of tumor regression ([3]; 1 mg/kg oral once a day): 77% regression
Inhibition rate SU-DHL-4 [4, 16]: 100%
Inhibition rate RKO [6, 17]: 58%
Inhibition rate Colo201 [7, 16]: 54%
Rate of tumor regression [12, 16]: 29% regression

COc1cnc(CN2CCC(c3ccc4c(c3)cc(C(=O)N3CCN(Cc5ccc(C#N)cc5)CC3)n4C)CC2)cn1 [Compound D1, 4-({4-[(5-{1-[(5-methoxypyrazin-2-yl)methyl]piperidin-4-yl}-1-methyl-1H-indol-2-yl)carbonyl]piperazin-1-yl}methyl)benzonitrile]
Inhibition rate DB [2, 16]: 96% inhibition
Inhibition rate of tumor growth ([3]; 1 mg/kg oral once a day): 90% inhibition
Inhibition rate SU-DHL-4 [4, 16]: 40%
Inhibition rate RKO [6, 17]: 13%
Inhibition rate Colo201 [7, 16]: 45%
IC50 [13]: 120 nM
Inhibition rate of tumor growth [12, 16]: 95% inhibition
